Laboratory results from ChEMBL document CHEMBL1131686, “Synthesis and biological activities of topoisomerase I inhibitors, 6-N-amino analogues of NB-506” (Bioorg Med Chem Lett, 1999).
pEC50, pIC50: −log10 of the molar value.

How the values were obtained:
Mus musculus = assay: Cytotoxicity against human stomach cancer cells (MKN-45) implanted subcutaneously into a side flank of nude mice; assay type: functional, Cancer cell lines
[1] = Ratio of LD10 to that of GID75 was determined; expressed as safety margin; assay type: functional
MKN-45 [2] = assay: In vitro cytotoxicity (CTX) against human stomach cancer cells (MKN-45) using sulforhodamine B dye-staining method; assay type: functional, cell-based
P388 [3] = assay: In vitro cytotoxicity (CTX) against murine leukemia cells (P388) using colorimetric tetrazolium-formazan method; assay type: functional, cell-based; settings: Mus musculus
MKN-45 [4] = assay: Cytotoxicity against human stomach cancer cells (MKN-45) after intravenous administration (5 times/week for 2 weeks after tumor grew to 0.2 cme3 or larger); assay type: functional, cell-based; settings: MKN-45, 336 h
DNA topoisomerase II = DNA topoisomerase II (Homo sapiens, UniProt P11388+Q02880); assay: In vitro activity against topoisomerase-2 mediated cleavage of supercoiled pBR322 plasmid DNA; assay type: functional
[5] = target: Protein kinase C alpha type (Homo sapiens, UniProt P17252); assay: In vitro activity evaluated against protein kinase C (using histone II-As as a substrate)
P388 [6] = assay: Effect on the formation of protein-DNA complex in P388 cells K+/SDS method; assay type: functional, Mus musculus
DNA topoisomerase 1 = target: T1, DNA topoisomerase 1 (Homo sapiens, UniProt P11387); assay: In vitro activity against topoisomerase-1 mediated cleavage of supercoiled pBR322 plasmid DNA; assay type: functional
T1 sequence (P11387 whole entry): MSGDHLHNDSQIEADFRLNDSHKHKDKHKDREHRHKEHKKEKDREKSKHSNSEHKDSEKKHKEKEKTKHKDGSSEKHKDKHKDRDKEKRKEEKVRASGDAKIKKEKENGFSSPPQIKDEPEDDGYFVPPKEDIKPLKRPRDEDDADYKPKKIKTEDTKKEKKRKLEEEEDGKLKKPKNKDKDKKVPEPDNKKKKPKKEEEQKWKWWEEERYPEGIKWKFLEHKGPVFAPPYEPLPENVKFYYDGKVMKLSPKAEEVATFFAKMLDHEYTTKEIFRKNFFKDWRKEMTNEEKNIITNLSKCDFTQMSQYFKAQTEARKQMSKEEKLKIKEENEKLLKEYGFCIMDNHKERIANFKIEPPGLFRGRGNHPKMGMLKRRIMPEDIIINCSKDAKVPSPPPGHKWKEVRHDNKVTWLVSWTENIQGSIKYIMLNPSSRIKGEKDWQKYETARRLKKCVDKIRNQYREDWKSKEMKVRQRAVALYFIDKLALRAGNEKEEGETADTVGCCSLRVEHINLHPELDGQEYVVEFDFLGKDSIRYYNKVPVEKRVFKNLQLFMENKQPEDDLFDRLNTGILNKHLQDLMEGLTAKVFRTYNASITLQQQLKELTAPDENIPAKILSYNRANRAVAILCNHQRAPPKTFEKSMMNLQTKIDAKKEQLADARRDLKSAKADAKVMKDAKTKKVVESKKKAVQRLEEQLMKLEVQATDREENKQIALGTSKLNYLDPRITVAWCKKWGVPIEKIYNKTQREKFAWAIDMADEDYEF

[7] = Lethal dose after intravenous administration (5 times/week for 2 weeks after tumor grew to 0.2 cme3 or larger) in mice; assay type: toxicity; settings: mouse, in vivo, 336 h
[8] = target: Epidermal growth factor receptor (Homo sapiens, UniProt P00533); assay: In vitro activity against Epidermal growth factor receptor (using poly(Glu4Tyr1) as a substrate)
Sequence of Epidermal growth factor receptor (P00533 whole entry): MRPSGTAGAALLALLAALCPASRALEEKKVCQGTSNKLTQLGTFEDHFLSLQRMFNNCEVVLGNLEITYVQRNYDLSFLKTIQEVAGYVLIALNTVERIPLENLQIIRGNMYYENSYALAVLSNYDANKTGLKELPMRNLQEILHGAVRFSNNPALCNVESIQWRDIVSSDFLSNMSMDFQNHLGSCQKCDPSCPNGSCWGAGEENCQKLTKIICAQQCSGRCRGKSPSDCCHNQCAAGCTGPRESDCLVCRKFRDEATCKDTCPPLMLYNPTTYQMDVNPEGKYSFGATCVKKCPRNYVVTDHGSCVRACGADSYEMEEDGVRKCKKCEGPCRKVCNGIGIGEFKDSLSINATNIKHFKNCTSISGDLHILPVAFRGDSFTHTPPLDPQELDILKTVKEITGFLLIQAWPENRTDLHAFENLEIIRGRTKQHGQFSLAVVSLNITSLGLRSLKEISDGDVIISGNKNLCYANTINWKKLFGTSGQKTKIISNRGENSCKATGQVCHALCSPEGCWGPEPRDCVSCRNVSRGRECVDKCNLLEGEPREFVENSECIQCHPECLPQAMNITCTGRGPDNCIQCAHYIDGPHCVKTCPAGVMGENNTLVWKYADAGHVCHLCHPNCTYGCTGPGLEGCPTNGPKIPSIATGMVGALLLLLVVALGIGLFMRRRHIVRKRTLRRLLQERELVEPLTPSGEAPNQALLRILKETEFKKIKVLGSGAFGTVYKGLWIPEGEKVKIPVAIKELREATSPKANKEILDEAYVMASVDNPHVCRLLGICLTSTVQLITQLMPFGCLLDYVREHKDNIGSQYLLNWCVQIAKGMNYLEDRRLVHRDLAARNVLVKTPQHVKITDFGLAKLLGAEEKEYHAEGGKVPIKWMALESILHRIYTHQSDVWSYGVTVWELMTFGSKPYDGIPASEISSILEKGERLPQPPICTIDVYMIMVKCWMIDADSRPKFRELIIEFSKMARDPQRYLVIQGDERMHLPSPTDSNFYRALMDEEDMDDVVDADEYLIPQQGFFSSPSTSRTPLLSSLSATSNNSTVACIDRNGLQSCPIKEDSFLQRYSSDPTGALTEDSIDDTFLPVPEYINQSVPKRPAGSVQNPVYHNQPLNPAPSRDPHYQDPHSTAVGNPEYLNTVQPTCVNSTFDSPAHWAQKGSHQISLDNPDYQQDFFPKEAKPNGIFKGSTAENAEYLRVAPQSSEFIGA

Compound	GID75 (Mus musculus)	Activity [1]	pIC50 (MKN-45 [2])	pIC50 (P388 [3])	pIC50 (MKN-45 [4])	EC50 (DNA topoisomerase II)	pIC50 [5]	EC200 (P388 [6])	pEC50 (DNA topoisomerase 1)	LD10 [7]	pIC50 [8]
O=CNN1C(=O)c2c(c3c4cccc(O)c4n(C4OC(CO)C(O)C(O)C4O)c3c3[nH]c4c(O)cccc4c23)C1=O (stereo not given)	1152 mg/me2	1.4 Ratio	6.51	7.12	6.51	> 50000 nM	< 3.70	1.4 µM	6.15	1600 mg/me2	< 3.70
CCCNN1C(=O)c2c(c3c4cccc(O)c4n(C4OC(CO)C(O)C(O)C4O)c3c3[nH]c4c(O)cccc4c23)C1=O (stereo not given)	–	–	6.68	7.26	–	> 50000 nM	4.19	6.3 µM	5.92	–	4.23
O=C(Nc1ccccc1)NN1C(=O)c2c(c3c4cccc(O)c4n(C4OC(CO)C(O)C(O)C4O)c3c3[nH]c4c(O)cccc4c23)C1=O (stereo not given)	–	–	6.60	6.60	–	–	5.17	>10 µM	6.60	–	4.02
O=C1NC(=O)c2c1c1c3cccc(O)c3[nH]c1c1c2c2cccc(O)c2n1C1OC(CO)C(O)C(O)C1O (stereo not given)	–	–	6.27	7.36	–	> 50000 nM	5.42	2 µM	5.52	–	4.05
N#CCC(=O)NN1C(=O)c2c(c3c4cccc(O)c4n(C4OC(CO)C(O)C(O)C4O)c3c3[nH]c4c(O)cccc4c23)C1=O (stereo not given)	–	–	5.72	6.31	–	> 50000 nM	4.19	20 µM	6.26	–	< 3.70
O=C1c2c(c3c4cccc(O)c4n(C4OC(CO)C(O)C(O)C4O)c3c3[nH]c4c(O)cccc4c23)C(=O)N1NC(CO)CO (stereo not given)	78 mg/me2	5 Ratio	6.89	7.77	6.89	> 50000 nM	< 3.70	0.45 µM	6.24	390 mg/me2	–
N#CCCNN1C(=O)c2c(c3c4cccc(O)c4n(C4OC(CO)C(O)C(O)C4O)c3c3[nH]c4c(O)cccc4c23)C1=O (stereo not given)	200 mg/me2	3.2 Ratio	7.70	8.22	7.70	> 50000 nM	< 3.70	0.9 µM	7.15	640 mg/me2	< 3.70
CCNN1C(=O)c2c(c3c4cccc(O)c4n(C4OC(CO)C(O)C(O)C4O)c3c3[nH]c4c(O)cccc4c23)C1=O (stereo not given)	>1500 mg/me2	–	7.23	7.74	7.23	> 50000 nM	< 3.70	1.2 µM	5.46	> 1500 mg/me2	< 3.70
CN(C)N1C(=O)c2c(c3c4cccc(O)c4n(C4OC(CO)C(O)C(O)C4O)c3c3[nH]c4c(O)cccc4c23)C1=O (stereo not given)	–	–	< 5.00	5.80	–	> 50000 nM	4.23	>10 µM	< 5.00	–	< 3.70
CS(=O)(=O)NN1C(=O)c2c(c3c4cccc(O)c4n(C4OC(CO)C(O)C(O)C4O)c3c3[nH]c4c(O)cccc4c23)C1=O (stereo not given)	–	–	6.57	7.22	–	> 50000 nM	< 3.70	>10 µM	6.24	–	< 3.70
CC(=O)NN1C(=O)c2c(c3c4cccc(O)c4n(C4OC(CO)C(O)C(O)C4O)c3c3[nH]c4c(O)cccc4c23)C1=O (stereo not given)	–	–	6.59	6.82	–	> 50000 nM	3.89	2 µM	6.00	–	< 3.70
O=C1c2c(c3c4cccc(O)c4n(C4OC(CO)C(O)C(O)C4O)c3c3[nH]c4c(O)cccc4c23)C(=O)N1NCC(O)CO (stereo not given)	290 mg/me2	1.1 Ratio	7.10	7.54	7.10	–	< 3.70	0.7 µM	6.00	330 mg/me2	3.74
NC(=O)NN1C(=O)c2c(c3c4cccc(O)c4n(C4OC(CO)C(O)C(O)C4O)c3c3[nH]c4c(O)cccc4c23)C1=O (stereo not given)	–	–	6.57	7.46	–	> 50000 nM	< 3.70	2.8 µM	6.44	–	< 3.70
O=C1c2c(c3c4cccc(O)c4n(C4OC(CO)C(O)C(O)C4O)c3c3[nH]c4c(O)cccc4c23)C(=O)N1NCc1cccc(O)c1 (stereo not given)	–	–	7.92	8.15	–	> 50000 nM	4.89	0.26 µM	6.52	–	< 3.70
O=C(O)c1ccc(NN2C(=O)c3c(c4c5cccc(O)c5n(C5OC(CO)C(O)C(O)C5O)c4c4[nH]c5c(O)cccc5c34)C2=O)cc1 (stereo not given)	–	–	< 5.00	5.19	–	> 50000 nM	4.64	>50 µM	6.80	–	4.05
O=C(CO)NN1C(=O)c2c(c3c4cccc(O)c4n(C4OC(CO)C(O)C(O)C4O)c3c3[nH]c4c(O)cccc4c23)C1=O (stereo not given)	1200 mg/me2	> 1.3 Ratio	6.18	6.62	6.18	> 50000 nM	< 3.70	5 µM	5.55	> 1500 mg/me2	< 3.70
O=C1NC(=O)c2c1c1c3cccc(O)c3[nH]c1c1[nH]c3c(O)cccc3c21	–	–	–	5.70	–	> 50000 nM	4.40	3 µM	< 5.52	–	4.54
Cc1ccc(S(=O)(=O)NN2C(=O)c3c(c4c5cccc(O)c5n(C5OC(CO)C(O)C(O)C5O)c4c4[nH]c5c(O)cccc5c34)C2=O)cc1 (stereo not given)	–	–	–	–	–	> 50000 nM	4.92	>10 µM	6.57	–	< 3.70
CNN1C(=O)c2c(c3c4cccc(O)c4n(C4OC(CO)C(O)C(O)C4O)c3c3[nH]c4c(O)cccc4c23)C1=O (stereo not given)	–	–	6.89	7.12	–	> 50000 nM	4.26	2.5 µM	6.46	–	4.00
O=C(NN1C(=O)c2c(c3c4cccc(O)c4n(C4OC(CO)C(O)C(O)C4O)c3c3[nH]c4c(O)cccc4c23)C1=O)c1ccccc1 (stereo not given)	–	–	7.32	7.92	–	–	4.46	10 µM	7.28	–	< 3.70
CN(C)CC(=O)NN1C(=O)c2c(c3c4cccc(O)c4n(C4OC(CO)C(O)C(O)C4O)c3c3[nH]c4c(O)cccc4c23)C1=O (stereo not given)	–	–	6.34	6.59	–	–	< 3.70	>10 µM	6.77	–	< 3.70
O=C(NN1C(=O)c2c(c3c4cccc(O)c4n(C4OC(CO)C(O)C(O)C4O)c3c3[nH]c4c(O)cccc4c23)C1=O)c1ccccn1 (stereo not given)	–	–	5.60	6.33	–	> 50000 nM	4.39	>10 µM	7.05	–	< 3.70
CCC(=O)NN1C(=O)c2c(c3c4cccc(O)c4n(C4OC(CO)C(O)C(O)C4O)c3c3[nH]c4c(O)cccc4c23)C1=O (stereo not given)	–	–	6.72	7.35	–	> 50000 nM	4.44	6 µM	6.32	–	< 3.70
NN1C(=O)c2c(c3c4cccc(O)c4n(C4OC(CO)C(O)C(O)C4O)c3c3[nH]c4c(O)cccc4c23)C1=O (stereo not given)	–	–	6.89	7.40	–	> 50000 nM	< 3.70	0.5 µM	6.57	–	< 3.70
O=C(O)CNN1C(=O)c2c(c3c4cccc(O)c4n(C4OC(CO)C(O)C(O)C4O)c3c3[nH]c4c(O)cccc4c23)C1=O (stereo not given)	–	–	5.54	6.10	–	> 50000 nM	3.96	>10 µM	5.02	–	< 3.70
